# Assay results reported in patent US20250059185A1 (Hoffmann-La Roche Inc., priority 2021, published 2025).
# Biological target: MAGL (Homo sapiens (Human), UniProt Q99685)
# Assay: 2-AG assay (MAGL inhibitory activity, hydrolysis of 2-arachidonoylglycerol followed by mass spectrometry)
# Type: biochemical
# Settings: 50 pM MAGL protein, 15 min pre-incubation, 30 min incubation at RT
# From the text: Compounds of formula (II) were profiled for MAGL inhibitory activity by determining the enzymatic activity by following the hydrolysis of the natural substrate 2-arachidonoylglycerol (2-AG) resulting in arachidonic acid, which can be followed by mass spectrometry. This assay is hereinafter abbreviated “2-AG assay”.
# Compounds of formula (II) were profiled for MAGL inhibitory activity by determining the enzymatic activity by following the hydrolysis of the natural substrate 2-arachidonoylglycerol (2-AG) resulting in arachidonic acid, which can be followed by mass spectrometry. This assay is hereinafter abbreviated “2-AG assay”. The 2-AG assay was carried out in 384 well polypropylene assay plates. Compound dilutions were made in 100% DMSO in a polypropylene plate in 3-fold dilution steps to give a final concentration range in the assay from 12.5 μM to 0.8 pM. Compound dilutions were added to MAGL protein in assay buffer (50 mM TRIS, 1 mM EDTA, 0.01% (v/v) Tween-20, 2.5% (v/v) DMSO). After shaking, the plate was incubated for 15 min at RT. To start the reaction, 2-arachidonoylglycerol in assay buffer was added. The final concentrations in the assay was 50 pM for MAGL protein and […] 2-arachidonoylglyerol. After shaking and 30 min incubation at RT, the reaction was quenched by the addition of two assay volumes of acetonitrile containing 4 μM of d8-arachidonic acid. The amount of arachidonic acid formed was traced by an online SPE system (Agilent Rapidfire) coupled to a triple quadrupole mass spectrometer. A C18 SPE cartridge (Agilent G9205A) was used in an acetonitrile/water liquid setup. The mass spectrometer was operated in negative electrospray mode following the mass transitions 303.1→259.1 for arachidonic acid and 311.1→267.0 for d8-arachidonic acid. The activity of the compounds was calculated based on the ratio of intensities [arachidonic acid/d8-arachidonic acid].
# Chain of MAGL (Q99685 whole entry, species assumed): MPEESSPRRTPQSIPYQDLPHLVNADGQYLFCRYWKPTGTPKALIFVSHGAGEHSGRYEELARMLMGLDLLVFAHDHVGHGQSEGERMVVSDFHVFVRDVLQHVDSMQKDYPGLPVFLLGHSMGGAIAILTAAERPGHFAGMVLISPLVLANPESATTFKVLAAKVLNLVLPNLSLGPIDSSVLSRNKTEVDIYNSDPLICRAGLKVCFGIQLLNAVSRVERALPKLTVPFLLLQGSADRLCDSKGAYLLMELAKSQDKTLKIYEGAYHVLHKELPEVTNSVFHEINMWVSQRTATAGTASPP
row,IC50 [µM],SMILES
1,0.163,"C[C@H]1c2nn(C)c(-c3cc(F)cc(F)c3)c2CCN1C(=O)c1ncn(-c2ccc(O)nc2)n1 [Example 33, [(7S)-3-(3,5-Difluorophenyl)-2,7-dimethyl-5,7-dihydro-4H-pyrazolo[3,4-c]pyridin-6-yl]-[1-(6-hydroxy-3-pyridyl)-1,2,4-triazol-3-yl]methanone]"
2,0.149,"C[C@H]1c2nn(C)c(-c3cc(F)cc(F)c3)c2CCN1C(=O)c1ncn(-c2cc(F)cnc2O)n1 [Example 34, [(7S)-3-(3,5-Difluorophenyl)-2,7-dimethyl-5,7-dihydro-4H-pyrazolo[3,4-c]pyridin-6-yl]-[1-(5-fluoro-2-hydroxy-3-pyridyl)-1,2,4-triazol-3-yl]methanone]"
3,0.104,"C[C@H]1c2nn(C)c(-c3cc(F)cc(F)c3)c2CCN1C(=O)c1ncn(-c2cc(Cl)cnc2O)n1 [Example 35, [1-(5-Chloro-2-hydroxy-3-pyridyl)-1,2,4-triazol-3-yl]-[(7S)-3-(3,5-difluorophenyl)-2,7-dimethyl-5,7-dihydro-4H-pyrazolo[3,4-c]pyridin-6-yl]methanone]"
4,0.017,"C[C@H]1c2nn(C)c(-c3cc(F)cc(F)c3)c2CCN1C(=O)c1cc(F)cc(-c2c[nH]c(C#N)c2)c1Cl [Example 36, 4-[2-Chloro-3-[(7S)-3-(3,5-difluorophenyl)-2,7-dimethyl-5,7-dihydro-4H-pyrazolo[3,4-c]pyridine-6-carbonyl]-5-fluoro-phenyl]-1H-pyrrole-2-carbonitrile]"
5,0.053,"CC1c2nn(C)c(-c3cc(F)cc(F)c3)c2CCN1C(=O)c1ccnc(OCC2CNC(=O)O2)c1Cl (stereo not drawn) [Example 41, 5-[[3-Chloro-4-[3-(3,5-difluorophenyl)-2,7-dimethyl-5,7-dihydro-4H-pyrazolo[3,4-c]pyridine-6-carbonyl]-2-pyridyl]oxymethyl]oxazolidin-2-one]"
6,0.026,"C[C@H]1c2nn(C)c(-c3cc(F)cc(F)c3)c2CCN1C(=O)c1ccnc(OCC2CNC(=O)O2)c1Cl (stereo partly drawn) [Example 42, 5-[[3-Chloro-4-[(7S)-3-(3,5-difluorophenyl)-2,7-dimethyl-5,7-dihydro-4H-pyrazolo[3,4-c]pyridine-6-carbonyl]-2-pyridyl]oxymethyl]oxazolidin-2-one]"
7,1.34,"C[C@@H]1c2nn(C)c(-c3cc(F)cc(F)c3)c2CCN1C(=O)c1ccnc(OCC2CNC(=O)O2)c1Cl (stereo partly drawn) [Example 43, 5-[[3-Chloro-4-[(7R)-3-(3,5-difluorophenyl)-2,7-dimethyl-5,7-dihydro-4H-pyrazolo[3,4-c]pyridine-6-carbonyl]-2-pyridyl]oxymethyl]oxazolidin-2-one]"
8,0.261,"CC1c2nn(C)c(-c3cc(F)cc(F)c3)c2CCN1C(=O)c1ccc(CCC2CNC(=O)C2)cc1Cl (stereo not drawn) [Example 44, 4-[2-[3-Chloro-4-[3-(3,5-difluorophenyl)-2,7-dimethyl-5,7-dihydro-4H-pyrazolo[3,4-c]pyridine-6-carbonyl]phenyl]ethyl]pyrrolidin-2-one]"
9,0.099,"C[C@H]1c2nn(C)c(-c3cc(F)cc(F)c3)c2CCN1C(=O)c1ccc(CCC2CNC(=O)C2)cc1Cl (stereo partly drawn) [Example 45, 4-[2-[3-Chloro-4-[(7S)-3-(3,5-difluorophenyl)-2,7-dimethyl-5,7-dihydro-4H-pyrazolo[3,4-c]pyridine-6-carbonyl]phenyl]ethyl]pyrrolidin-2-one]"
10,1.68,"C[C@@H]1c2nn(C)c(-c3cc(F)cc(F)c3)c2CCN1C(=O)c1ccc(CCC2CNC(=O)C2)cc1Cl (stereo partly drawn) [Example 48, 4-[2-[3-Chloro-4-[(7R)-3-(3,5-difluorophenyl)-2,7-dimethyl-5,7-dihydro-4H-pyrazolo[3,4-c]pyridine-6-carbonyl]phenyl]ethyl]pyrrolidin-2-one]"
11,0.003,"C[C@H]1c2nn(C)c(-c3cc(F)cc(F)c3)c2CCN1C(=O)c1cc(F)cc(-c2c[nH]c(C#N)c2)c1 [Example 53, 4-[3-[(7S)-3-(3,5-Difluorophenyl)-2,7-dimethyl-5,7-dihydro-4H-pyrazolo[3,4-c]pyridine-6-carbonyl]-5-fluorophenyl]-1H-pyrrole-2-carbonitrile]"
12,0.007,"CC1c2nn(C)c(-c3cc(Cl)cc(C4(NS(C)(=O)=O)CC4)c3)c2CCN1C(=O)c1cc(F)cc(-c2ccc(=O)[nH]c2)c1Cl (stereo not drawn) [Example 55, N-[1-[3-Chloro-5-[6-[2-chloro-5-fluoro-3-(6-oxo-1H-pyridin-3-yl)benzoyl]-2,7-dimethyl-5,7-dihydro-4H-pyrazolo[3,4-c]pyridin-3-yl]phenyl]cyclopropyl]methanesulfonamide]"
13,0.115,"CC1c2nn(C)c(-c3cc(Cl)cc(C4(NS(C)(=O)=O)CC4)c3)c2CCN1C(=O)c1cc(F)cc(-c2cc[nH]c(=O)c2)c1Cl (stereo not drawn) [Example 57, N-[1-[3-Chloro-5-[6-[2-chloro-5-fluoro-3-(2-oxo-1H-pyridin-4-yl)benzoyl]-2,7-dimethyl-5,7-dihydro-4H-pyrazolo[3,4-c]pyridin-3-yl]phenyl]cyclopropyl]methanesulfonamide]"
14,0.304,"CC1c2nn(C)c(-c3cncc(C(F)(F)F)n3)c2CCN1C(=O)c1cc(F)cc(N2CC(S(N)(=O)=O)C2)c1Cl (stereo not drawn) [Example 58, 1-[2-Chloro-3-[2,7-dimethyl-3-[6-(trifluoromethyl)pyrazin-2-yl]-5,7-dihydro-4H-pyrazolo[3,4-c]pyridine-6-carbonyl]-5-fluoro-phenyl]azetidine-3-sulfonamide]"
15,1.07,"CC1c2nn(C)c(-c3cc(Cl)cc(S(N)(=O)=O)c3)c2CCN1C(=O)c1ncn(-c2ccc[nH]c2=O)n1 (stereo not drawn) [Example 59, 3-Chloro-5-[2,7-dimethyl-6-[1-(2-oxo-1H-pyridin-3-yl)-1,2,4-triazole-3-carbonyl]-5,7-dihydro-4H-pyrazolo[3,4-c]pyridin-3-yl]benzenesulfonamide]"
16,0.138,"CC1c2nn(C)c(-c3cc(Cl)cc(C4(S(C)(=O)=O)CC4)c3)c2CCN1C(=O)c1cc(F)cc(-c2ccc(=O)[nH]c2)c1Cl (stereo not drawn) [Example 60, 5-[2-Chloro-3-[3-[3-chloro-5-(1-methylsulfonylcyclopropyl)phenyl]-2,7-dimethyl-5,7-dihydro-4H-pyrazolo[3,4-c]pyridine-6-carbonyl]-5-fluoro-phenyl]-1H-pyridin-2-one]"
17,0.077,"CC1c2nn(C)c(-c3cc(Cl)cc(S(N)(=O)=O)c3)c2CCN1C(=O)c1cc(F)cc(-c2nc[nH]n2)c1Cl (stereo not drawn) [Example 61, 3-Chloro-5-[6-[2-chloro-5-fluoro-3-(1H-1,2,4-triazol-3-yl)benzoyl]-2,7-dimethyl-5,7-dihydro-4H-pyrazolo[3,4-c]pyridin-3-yl]benzenesulfonamide]"
18,0.326,"C[C@H]1c2nn(C)c(-c3cc(Cl)cc(S(N)(=O)=O)c3)c2CCN1C(=O)c1ncn(-c2ccc[nH]c2=O)n1 [Example 62, 3-Chloro-5-[(7S)-2,7-dimethyl-6-[1-(2-oxo-1H-pyridin-3 yl)-1,2,4-triazole-3-carbonyl]-5,7-dihydro-4H-pyrazolo[3,4-c]pyridin-3-yl]benzenesulfonamide]"
19,0.552,"C[C@@H]1c2nn(C)c(-c3cc(Cl)cc(S(N)(=O)=O)c3)c2CCN1C(=O)c1ncn(-c2ccc[nH]c2=O)n1 [Example 63, 3-Chloro-5-[(7R)-2,7-dimethyl-6-[1-(2-oxo-1H-pyridin-3-yl)-1,2,4-triazole-3-carbonyl]-5,7-dihydro-4H-pyrazolo[3,4-c]pyridin-3-yl]benzenesulfonamide]"
20,0.013,"C[C@H]1c2nn(C)c(-c3cncc(C(F)(F)F)n3)c2CCN1C(=O)c1cc(F)cc(-c2c[nH]c(C#N)c2)c1Cl [Example 64, 4-[2-chloro-3-[(7S)-2,7-dimethyl-3-[6-(trifluoromethyl)pyrazin-2-yl]-5,7-dihydro-4H-pyrazolo[3,4-c]pyridine-6-carbonyl]-5-fluoro-phenyl]-1H-pyrrole-2-carbonitrile]"
21,2.83,"C[C@H]1c2nn(C)c(-c3cncc(C(F)(F)F)n3)c2CCN1C(=O)c1cc(F)cc(N2CC3(C2)CS(=O)(=O)C3)c1Cl [Example 65, [2-chloro-3-(2,2-dioxo-2λ^6-thia-6-azaspiro[3.3]heptan-6-yl)-5-fluoro-phenyl]-[(7S)-2,7-dimethyl-3-[6-(trifluoromethyl)pyrazin-2-yl]-5,7-dihydro-4H-pyrazolo[3,4-c]pyridin-6-yl]methanone]"
22,3.24,"C[C@@H]1c2nn(C)c(-c3cncc(C(F)(F)F)n3)c2CCN1C(=O)c1cc(F)cc(N2CC3(C2)CS(=O)(=O)C3)c1Cl [Example 66, [2-chloro-3-(2,2-dioxo-2λ^6-thia-6-azaspiro[3.3]heptan-6-yl)-5-fluoro-phenyl]-[(7R)-2,7-dimethyl-3-[6-(trifluoromethyl)pyrazin-2-yl]-5,7-dihydro-4H-pyrazolo[3,4-c]pyridin-6-yl]methanone]"
23,4.22,"C[C@H]1c2nn(C)c(-c3cncc(C(F)(F)F)n3)c2CCN1C(=O)c1ncn(-c2ccc[nH]c2=O)n1 [Example 67, 3-[3-[(7S)-2,7-dimethyl-3-[6-(trifluoromethyl)pyrazin-2-yl]-5,7-dihydro-4H-pyrazolo[3,4-c]pyridine-6-carbonyl]-1,2,4-triazol-1-yl]-1H-pyridin-2-one]"

row,SMILES,IC50 [µM]
1,C=S(N)(=O)c1cc(Cl)cc(-c2c3c(nn2C)C(C)N(C(=O)c2cc(F)cc(-c4ccc(=O)[nH]c4)c2Cl)CC3)c1 (stereo not drawn) [Example 56],0.012
